According to article PMC10569896, “Molecular Investigation of the Antitumor Effects of Monoamine Oxidase Inhibitors in Breast Cancer Cells” (BioMed Research International, 2023):

Assays:
[1] = system: T-47D; test: cells; design: MTT cell viability assay, antiproliferative IC50 in T-47D breast cancer cells; conditions: Homo sapiens, T47D, 48 h
Method: (§1) To assess the effect of MAO-AIs on the survival and proliferation of breast cancer cells, MTT colorimetric analysis was performed as previously described. MDA-MB-231 and T47D cells were seeded into a 96-well plate, at a different seeding density per well depending on proliferation ability, doubling time, and target time of treatment. Then, cells were maintained at 37°C in a humidified 5% CO2 atmosphere. Cell viability was calculated as follows: cell viability (%) = [(optical density of viable cells in the test group)/optical density of viable cells in the negative control group] × 100%. Experiments were run at least 2-3 times independently. […] The ratio of IC50 for each drug alone guided the selection of an appropriate combination ratio. As described earlier, the MTT test was used to determine cell viability after treatment time elapsed (48 hours). CompuSyn software (ComboSyn Inc., Paramus, NJ, USA) was used to determine the combination index (CI), which is based on Chou-Talalay's combination index theorem, and its formula is the sum of the ratio of the dose of each drug in the compound to the dose when used alone when the combination and compound produce 50% efficacy. CI values < 1, =1, and > 1 indicate synergism, additive, and antagonistic effects, respectively, as shown in Equation (1). In this study, MTT assay was performed after exposing MDA-MB-231 and T-47d cell lines to increasing concentrations of MAO-A inhibitors for either 24, 48, or 72 h. […] Breast cancer cell lines, T-47D and MDA-MB-231 cells, were purchased from American Type Culture Collection (ATCC, USA). Cells were cultured in DMEM high glucose culture medium supplemented with 10% fetal bovine serum (FBS), 2 mM L-glutamine, 100 U/mL penicillin, and 0.1 mg/mL streptomycin. Cells were maintained in a humidified controlled temperature incubator set at 37°C, 95% humidity, and 5% CO2.

[2] = system: MDA-MB-231; test: cells; design: MTT cell viability assay, antiproliferative IC50 in MDA-MB-231 breast cancer cells; conditions: Homo sapiens, MDA-MB-231, 48 h
Method: as §1

IC50 [1] [µM]	IC50 [2] [µM]	Structure (SMILES)
2.2	2	COc1cccc2c1C(=O)c1c(O)c3c(c(O)c1C2=O)C[C@@](O)(C(=O)CO)C[C@@H]3O[C@H]1C[C@H](N)[C@H](O)[C@H](C)O1 [Doxorubicin]
157	163	C#CCN(C)CCCOc1ccc(Cl)cc1Cl [J19, clorgyline]
28	27	O=C(c1ccc(OCCN2CCCCC2)cc1)c1c(-c2ccc(O)cc2)sc2cc(O)ccc12 [Raloxifene]
